Measurements reported in patent US9145415B2, “Nitrogen-containing heterocyclic compound or salt thereof” (FUJIFILM Corporation, priority 2012, dated 2015).
Like-named read-outs stand apart in the source and are kept apart here.

Tests used:
MV4-11 cells = experiment: Leukemia cell proliferation inhibition test (ATPlite), MV4-11; assay type: cell-based; settings: Homo sapiens, read-out: MV4-11 cell proliferation inhibition effect
How it was run: (§1)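 Proliferation inhibition is quantified from total cellular ATP, measured by luciferase luminescence, after cells grow with compound for 72 hours. The GI50 is the concentration giving half the signal of the 0.1% DMSO control, fitted to a sigmoid curve from duplicate points.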

[1] = target: T1, human FLT3 protein (FLT3 (WT)) (Homo sapiens, UniProt P36888); experiment: FLT3 inhibition test (FLT3 enzyme inhibition, time-resolved fluorescence of substrate peptide phosphorylation); assay type: biochemical; settings: read-out: FLT3 (WT) enzyme inhibition activity
T1 construct: human FLT3 protein (intracellular region, 564 to 993 aa); GST; purchased Carna Biosciences; host or cells: baculovirus expression system
T1 sequence (P36888 564-993): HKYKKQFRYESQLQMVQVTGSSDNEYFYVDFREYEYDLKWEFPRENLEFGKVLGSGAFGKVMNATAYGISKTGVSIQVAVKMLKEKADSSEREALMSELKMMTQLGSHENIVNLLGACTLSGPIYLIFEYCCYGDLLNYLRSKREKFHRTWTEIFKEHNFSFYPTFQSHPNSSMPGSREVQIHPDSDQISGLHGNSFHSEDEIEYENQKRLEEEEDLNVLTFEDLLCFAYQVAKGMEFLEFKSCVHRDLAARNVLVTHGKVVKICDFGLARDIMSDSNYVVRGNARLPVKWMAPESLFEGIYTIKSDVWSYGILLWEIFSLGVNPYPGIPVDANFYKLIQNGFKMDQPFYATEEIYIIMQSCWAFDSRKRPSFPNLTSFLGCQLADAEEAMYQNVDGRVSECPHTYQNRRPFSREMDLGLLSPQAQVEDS
How it was run: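 Substrate peptide phosphorylation detected by time-resolved fluorescence after a 30 min kinase reaction at 25° C with 50 μM ATP (final). Beforehand, compound and FLT3 (WT, 1.2 μg) stood 15 min at 25° C in HEPES buffer pH 7.5 containing MgCl2, NaCl, BSA and DTT.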

Molm-13 cells = experiment: Leukemia cell proliferation inhibition test (ATPlite), Molm-13; assay type: cell-based; settings: Homo sapiens, read-out: MOLM13 cell proliferation inhibition effect
How it was run: as §1

[2] = MV4-11, 72 h, MV4-11, 72 hours culture, ATPlite, GI50 per method
[3] = GST-fused human FLT3 (564 to 993 aa), ATP 50 μM
[4] = MOLM-13, 72 h, Molm-13, 72 hours culture, ATPlite, GI50 per method

| Compound | IC50 (MV4-11 cells; [2]) [nM] | IC50 [1, 3] [nM] | IC50 (Molm-13 cells; [4]) [nM] | IC50 (MV4-11 cells; MV4-11, MV4-11 cell) [nM] | IC50 ([1]; FLT3 (WT)) [nM] | IC50 (Molm-13 cells; MOLM-13, MOLM13 cell) [nM] |
| --- | --- | --- | --- | --- | --- | --- |
| COc1nc(Nc2ccc(C#N)cc2)ncc1C#C[C@@H]1CCC[C@H](NC(=O)[C@H](C)N(C)C(=O)/C=C/CN(C)C)C1 [Compound 15-1, (E)-N—((S)-1-(((1S,3R)-3-((2-((4-cyanophenyl)amino)-4-methoxypyrimidin-5-yl)ethynyl)cyclohexyl)amino)-1-oxopropan-2-yl)-4-(dimethylamino)-N-methyl-2-butenamide] | < 10 | < 10 | < 10 |  |  |  |
| CCCNc1nc(Nc2ccc(C#N)cc2)ncc1C#CCCCNC(=O)[C@@H]1CC(F)(F)CN1C(=O)/C=C/CN(C)C [Compound 7-54] | < 10 | 10 to 100 | < 10 |  |  |  |
| CN(C)C/C=C/C(=O)N(C)CC(=O)NCCCC#Cc1cnc(Nc2ccc(F)cc2)nc1N1CCOCC1 [Compound 10-17] | < 10 | < 10 | 10 to 100 |  |  |  |
| CCCNc1nc(Nc2cccc(C#N)c2)ncc1C#C[C@@H]1CCC[C@H](NC(=O)[C@H](C)N(C)C(=O)/C=C/CN(C)C)C1 [Compound 13-7] | < 10 | < 10 | < 10 |  |  |  |
| CCCNc1nc(Nc2ccccc2)ncc1C#CCCCNC(=O)[C@H](C)N(C)C(=O)/C=C/CN(C)C [Compound 12-1, (S,E)-4-(dimethylamino)-N-methyl-N-(1-oxo-1-((5-(2-(phenylamino)-4-(propylamino)pyrimidin-5-yl)-4-pentyn-1-yl)amino)propan-2-yl)-2-butenamide] | < 10 | < 10 | < 10 |  |  |  |
| CCCNc1nc(Nc2ccc3ncccc3c2)ncc1C#CCCCNC(=O)[C@H](C)N(C)C(=O)/C=C/CN(C)C [Compound 22-2] |  |  |  | < 10 | < 10 | < 10 |
| C[C@@H](C(=O)NCCCC#Cc1cnc(Nc2ccnc(F)c2)nc1NC1CC1)N(C)C(=O)/C=C/CN(C)C [Compound 9-15, (S,E)-N-(1-((5-(4-(Cyclopropylamino)-2-((2-fluoropyridin-4-yl)amino)pyrimidin-5-yl)-4-pentyn-1-yl)amino)-1-oxopropan-2-yl)-4-(dimethylamino)-N-methyl-2-butenamide] | < 10 | < 10 | < 10 |  |  |  |
| COc1ccc(Nc2nc(Nc3ccc(F)cc3)ncc2C#CCCCNC(=O)[C@H](C)N(C)C(=O)/C=C/CN(C)C)cn1 [Compound 10-40] | < 10 | < 10 | < 10 |  |  |  |
| CCCNc1nc(Nc2ccc(C(N)=O)cc2)ncc1C(=O)Nc1cccc(NC(=O)[C@@H]2CCCN2C(=O)/C=C/CN(C)C)c1 [Compound 3-30] | < 10 | < 10 | 10 to 100 |  |  |  |
| CCCNc1nc(Nc2ccc(C)cc2)ncc1C#CCCCNC(=O)[C@H](C)N(C)C(=O)/C=C/CN(C)C [Compound 12-9] | 10 to 100 | < 10 | 10 to 100 |  |  |  |
| COCCNc1nc(Nc2cccc(C#N)c2)ncc1C#C[C@@H]1CCC[C@H](NC(=O)[C@H](C)N(C)C(=O)/C=C/CN(C)C)C1 [Compound 22-38] |  |  |  | < 10 | < 10 | < 10 |
| COCCCNc1nc(Nc2ccnc(OC)c2)ncc1C#CCCCNC(=O)[C@H](C)N(C)C(=O)/C=C/CN(C)C [Compound 9-31] | < 10 | < 10 | < 10 |  |  |  |
| CNc1ncc(C#CCCCNC(=O)[C@H](C)N(C)C(=O)/C=C/CN(C)C)c(Nc2ccc(OC)cc2)n1 [Compound 21-48] |  |  |  | 10 to 100 | < 10 | < 10 |
| CCCN(c1nc(Nc2ccnc(F)c2)ncc1C#CCCCNC(=O)[C@H](C)N(C)C(=O)/C=C/CN(C)C)C1CC1 [Compound 9-14] | < 10 | < 10 | < 10 |  |  |  |
| CCCNc1nc(Nc2ccc(C#N)cc2)ncc1C#CCCCNC(=O)[C@H](CC)N(C)C(=O)/C=C/CN(C)C [Compound 7-34] | < 10 | < 10 | < 10 |  |  |  |
| CNc1nc(Nc2ccc(F)cc2)ncc1C#CCCCNC(=O)[C@H](C)N(C)C(=O)/C=C/CN(C)C [Compound 21-51] |  |  |  | < 10 | < 10 | < 10 |
